From patent US20230257817A1, “IDENTIFICATION OF GENOME REGIONS ASSOCIATED WITH KIDNEY DISEASE AND TREATMENT” (THE RESEARCH INSTITUTE AT NATIONWIDE CHILDREN'S HOSPITAL, priority 2020, published 2023)
“Also recorded” adds a separate entry of the source.

Tests used:
[1] = test system: glomerular genes; experiment: RNA sequencing of glomeruli isolated from PAN-NS rats (glomerular transcriptome); assay type: in vivo, rat
Experimental: (§1) Proteinuria was induced in male Wister rats (body weight[…], age˜45-50 d) by single tail vein injection of Puromycin aminonucleoside (PAN, #P7130, Sigma; St. Louis, Mo.) −50 mg/kg, n=4 on Day 0, while the control group received saline injection (n=4). PAN-induced proteinuria was treated daily with methylprednisolone (15 mg/kg, n=4, Solu-Medrol; Pfizer Inc., New York, N.Y.) via intraperitoneal injection or with pioglitazone (10 mg/kg, Actos; Takeda, Deerfield, Ill.) via oral gavage until day 11 of post PAN-injection. Morning spot urine samples were collected on Day 0 (before PAN injection) and day 11 for urinary protein: creatinine ratio (UPC) analysis. Kidneys were harvested at day 11 and were processed for glomerular isolation.
Glomeruli were isolated using sieving method where kidney cortex was pared using curved scissors into the petri lid with cold PBS, minced well, drained and washed onto pre-moistened No. 80 sieve. Using squeeze bottle, minced kidneys on No. 80 sieve were washed thoroughly and transferred to No. 140 sieve. No. 140 and 200 are stacked together to catch smaller material. Kidney material was then ground through No. 140 sieve with very gentle pressure using bottom of cold round 250 ml beaker. The ground kidney was washed back and forth well over sieve No. 140 onto No. 200. This catch material is the glomeruli. The glomeruli were washed with cold PBS to get rid of any contaminants and the final washed material was collected into labeled 50 ml conical tube. The tube was spun at ˜1500 rpm for 3 min Glomeruli precipitate was then suspended in RLT buffer (Qiagen, Germantown, Md.) containing β-mercaptoethanol (#M6250 Sigma).
(§2) Total RNA from the isolated glomeruli was isolated using the RNeasy mini Kit (Qiagen) according to the manufacturer's instructions. The purity and yield of RNA was determined by measuring the absorbance at 230, 260 and 280 nm. Briefly, 1 ug of RNA was subjected to DNase (Ambion, Thermo Fisher Scientific) digestion at 37° C. for 30 min followed by DNase inactivation with 5 mM EDTA at 75° C. for 10 min.
RNA quality was assessed using the Agilent 2100 Bioanalyzer and RNA Nano Chip Kit (Agilent Technologies, CA) to ensure that the RNA Integrity Number (RIN) was ≥7. RNA-seq libraries were then generated using TruSeq Standard total RNA with Ribo-Zero Globin Complete kit (Illumina, CA). Briefly, ribosomal RNA (rRNA) was removed from 350 ng of total RNA with biotinylated, target-specific oligos combined with Ribo-Zero rRNA removal beads from the Human/Mouse/Rat Globin kit. To generate directional signals in RNA seq data, libraries were constructed from first strand cDNA using ScriptSeq™ v2 RNA-Seq library preparation kit (Epicentre Biotechnologies, WI). Briefly, 50 ng of rRNA-depleted RNA was fragmented and reverse transcribed using random primers containing a 5′ tagging sequence, followed by 3′ end tagging with a terminal-tagging oligo to yield di-tagged, single-stranded cDNA. Following purification using a magnetic bead-based approach, the di-tagged cDNA was amplified by limit-cycle PCR using primer pairs that anneal to tagging sequences and add adaptor sequences required for sequencing cluster generation. Amplified RNA-seq libraries were purified using AMPure XP System (Beckman Coulter). The quality of libraries was determined via Agilent 2200 TapeStation using High Sensitivity D1000 tape, and quantified using Kappa SYBR®Fast qPCR kit (KAPA Biosystems, Inc, MA). Approximately, 90-125 million paired-end 150 bp reads were generated per sample using the Illumina HiSeq4000 platform. Raw data were converted to FASTQ using Illumina's bc12fastq application. Sequencing adapters matching at least 6 bases were then removed from the reads, as well as low-quality bases (<10) using v1.10 of cutadapt. […]

[2] = test system: rats with PAN-induced NS; experiment: PAN-induced nephrotic syndrome rat model, urine protein-to-creatinine ratio; assay type: in vivo; details: for Urine protein to creatinine ratio (UPCR): day 11 after single PAN dose 50 mg/kg IV, MP 15 mg/kg i.p. daily, Pio 10 mg/kg oral gavage daily, n=4 rats per group
Experimental: as §1
UPC was measured by Antech Diagnostics (Morrisville, N.C.) using standard techniques that are fully compliant with Good Laboratory practice regulations. See Agrawal et al., Sci Rep 6, 24392 (2016)

[3] = test system: rats with PAN-induced NS; details: earlier study, Agrawal et al., Sci Rep 6, 24392 (2016); cited from earlier work
[4] = test system: human podocyte cell line (MS13); experiment: Real-time PCR of 17 genes-of-interest in PAN-exposed human podocyte cell line; assay type: cell-based; details: PAN 2.5 and 5 μg/ml, 24 h and 48 h
Experimental: (§3) The conditionally immortalized human podocyte cell line (MS13) and human primary mesangial cells were cultured as previously described. Sharma et al., J Am Soc Nephrol 28, 2618-2630 (2017). 3×10^4 undifferentiated podocytes were plated on a 6-well plate and were incubated at 37° C. for 12-14 days prior to the start of experiment whereas 1×10^5 mesangial cells were plated on a 6-well plate a day prior to start of experiment. Further, podocytes and mesangial cells were serum starved 0/N with 1% FCS containing RPMI media, before the experiment. The following day, podocytes were exposed to 2.5 and 5 μg/ml of PAN for 24 and 48 hrs whereas in case of mesangial cells, 5 μg/ml of PAN (Sigma; St. Louis, Mo.) was added for 24 and 48 hrs. Cells were lysed in 400 μl of RNA lysis buffer provided by Ambion (#AM1560).
as §2, with “cultured podocytes and mesangial cells” for “isolated glomeruli”, “miRVANA miRNA isolation kit (Ambion, ThermoScientific)” for “RNeasy mini Kit (Qiagen)”, “instructions. The RNA was eluted in 40 μl of nuclease free water.” for “instructions.”, “μg” for “ug”
(§4) […] of total isolated RNA was reverse transcribed to cDNA by iScript cDNA synthesis kit according to manufacturer's instructions (#1708890. Bio-Rad). The resulting cDNA was diluted to 1:5 with nuclease free water. Diluted cDNA was finally used for relative mRNA quantitation of 17 targets-of-interest using SYBER green based Bio-Rad CFX96 Real-Time PCR machine (Bio-Rad Labs, Hercules, Calif.). Both RPL19 and PPIA were used as reference genes.

[5] = test system: human primary mesangial cells; experiment: Real-time PCR of 17 genes-of-interest in PAN-exposed human primary mesangial cells; assay type: cell-based; details: PAN 5 μg/ml, 24 h and 48 h
Experimental: as §3
as §2, with “cultured podocytes and mesangial cells” for “isolated glomeruli”, “miRVANA miRNA isolation kit (Ambion, ThermoScientific)” for “RNeasy mini Kit (Qiagen)”, “instructions. The RNA was eluted in 40 μl of nuclease free water.” for “instructions.”, “μg” for “ug”
as §4

[6] = overlap analysis, common to both treatments
[7] = PAN-NS glomeruli, day 11, FDR<0.05, of 1,872 DEGs

CCc1ccc(CCOc2ccc(CC3SC(=O)NC3=O)cc2)nc1 (stereo not shown) [Pio, pioglitazone]
effect on transcriptional profiles of endothelial cell-specific genes ([1]; 42 endothelial genes): neither MP nor Pio treatment had notable effects
PAN-induced gene expression alterations in podocyte- and mesangial cell-specific gene clusters ([1]; 66 podocyte and 43 mesangial genes, PCA plots): substantially reversed
number of the 858 glomerular genes downregulated in PAN-NS significantly ameliorated ([1]; FDR<0.05 vs PAN): 144
number of the 1,014 glomerular genes upregulated in PAN-NS significantly ameliorated ([1]; FDR<0.05 vs PAN): 346
share of the 858 glomerular genes downregulated in PAN-NS significantly ameliorated ([1]; FDR<0.05 vs PAN): 17%
share of the 1,014 glomerular genes upregulated in PAN-NS significantly ameliorated ([1]; FDR<0.05 vs PAN): 34%
PAN-induced dysregulation of glomerular gene sets associated with extracellular matrix and cyclins (GSEA) ([1]; GSEA, FDR<0.05): significantly ameliorated
number of DEGs significantly induced by PAN but ameliorated by both MP and Pio [1, 6]: 319
number of DEGs significantly suppressed by PAN but ameliorated by both MP and Pio [1, 6]: 126
reduction of proteinuria (UPCR) vs PAN ([2]; day 11, PAN+MP or PAN+Pio vs PAN): 94%
Urine protein to creatinine ratio (UPCR) [2]: 3.45 ± 0.82 mg/mg
proteinuria in PAN-induced rat model of NS, previously reported [3]: significantly reduced proteinuria; also recorded: significant proteinuria reduction

CN(C)c1ncnc2c1ncn2[C@@H]1O[C@H](CO)[C@@H](N)[C@H]1O [PAN, Puromycin aminonucleoside]
CPT1B, PDK4, ANGPTL4, TAGLN and CDKN1A mRNA expression [4]: significant increase in expression
SERPINE1, MMP14, CCL2, LIF, BIRC5 mRNA expression [4]: did not follow the expected pattern
LGALS3 mRNA expression ([4]; P=0.0003 vs. controls): induction of expression; also recorded: exclusively enhanced
number of glomerular genes significantly downregulated compared to healthy controls [1, 7]: 858
number of glomerular genes significantly upregulated compared to healthy controls [1, 7]: 1,014
Urine protein to creatinine ratio (UPCR) [2]: 57.2 ± 41.6 mg/mg
CPT1B, PDK4, ANGPTL4, TAGLN and CDKN1A mRNA expression [5]: significant increase in expression
SERPINE1, MMP14, CCL2, LIF, BIRC5 mRNA expression [5]: did not follow the expected pattern
MMP2 mRNA expression ([5]; P=0.007 vs. controls): induced; also recorded: markedly upregulated
ACTA2 mRNA expression ([5]; P=0.045 vs. controls): induced; also recorded: markedly upregulated
